In patent publication US5824771A, “Cyclic CRF agonists” (The Salk Institute for Biological Studies, priority 1997, dated 1998):
Entries after “also recorded” stand apart in the source; their conditions may differ. Bridge positions count the residues as written; N and C are the ends. Square brackets hold non-standard residues; d marks the D form. Ends that are not written are not given here. Peptide text beside a SMILES is read from it. Nle = CCCC[C@H](N)C(=O)O

How the values were obtained:
[1] = tested on: ACTH and β-endorphin secretion; settings: background statements; in vitro and in vivo or iv; cited from earlier work
[2] = background statements; injected peripherally or iv, mammals; cited from earlier work
[3] = background statement; cited from earlier work
[4] = Relief of inflammation on administration; assay type: in vivo; settings: administration of the peptide

## CC[C@H](C)[C@H](NC(=O)[C@@H](NC(=O)[C@H](CC(=O)O)NC(=O)[C@H](CC(C)C)NC(=O)[C@H](CC(C)C)NC(=O)[C@H](CC(C)C)NC(=O)[C@H](CCCNC(=N)N)NC(=O)[C@H](CC(N)=O)NC(=O)[C@H](CC(N)=O)NC(=O)[C@H](C)NC(=O)[C@H](C)NC(=O)[C@H](CCC(N)=O)NC(=O)[C@H](CCC(N)=O)NC(=O)[C@H](CCCCN)NC(=O)[C@H](CCC(=O)O)NC(=O)[C@H](CCCCN)NC(=O)[C@H](CCC(=O)O)NC(=O)[C@H](CCC(N)=O)NC(=O)[C@H](CCCCN)NC(=O)[C@H](CCC(=O)O)NC(=O)[C@@H](NC(=O)[C@H](CCC(=O)O)NC(=O)[C@@H](NC(=O)[C@H](CCSC)NC(=O)[C@H](CCCCN)NC(=O)[C@H](CCCNC(=N)N)NC(=O)[C@H](CC(C)C)NC(=O)[C@H](CC(C)C)NC(=O)[C@H](CCC(=O)O)NC(=O)[C@H](CC(C)C)NC(=O)[C@H](CO)NC(=O)[C@H](CC(C)C)NC(=O)[C@H](CC(=O)O)NC(=O)[C@@H](NC(=O)[C@H](CO)NC(=O)[C@@H](NC(=O)[C@@H]1CCCN1C(=O)[C@@H]1CCCN1C(=O)CNC(=O)[C@@H]1CCC(=O)N1)[C@@H](C)CC)[C@@H](C)CC)[C@@H](C)CC)[C@@H](C)CC)[C@@H](C)O)C(N)=O [sauvagine]
[1]
  stimulation of ACTH and β-endorphin secretion / activities, in words: stimulate the secretion of ACTH and β-endorphin
[2]
  lowering of blood pressure, in words: lower blood pressure
[3]
  gastric acid production, in words: inhibit gastric acid production

## r/hCRF: rat/human CRF, a homologous amidated hentetracontapeptide; alternate standard (SEEPPISLDLTFHLLREVLEMARAEQLAQQAHSNRKLMEII-NH2; UniProt P06850 154-194, looked up)
[1]
  stimulation of ACTH and β-endorphin secretion / activities, in words: stimulate ACTH and β-endorphin-like activities (β-END-Li) in vitro and in vivo
[2]
  lowering of blood pressure, in words: substantially lower blood pressure
[3]
  gastric acid production, in words: inhibit gastric acid production

## CCCC[C@H](NC(=O)[C@H](CCCCN)NC(=O)[C@H](CCCNC(=N)N)NC(=O)[C@H](CC(C)C)NC(=O)[C@H](CC(C)C)NC(=O)[C@H](CCC(=O)O)NC(=O)[C@@H](CC(C)C)NC(=O)[C@H](CO)NC(=O)[C@H](CC(C)C)NC(=O)[C@H](CC(=O)O)NC(=O)[C@@H](NC(=O)[C@H](CO)NC(=O)[C@@H](NC(=O)[C@H]1CCCN1C(=O)[C@@H]1CCCN1C(C)=O)[C@@H](C)CC)[C@@H](C)CC)C(=O)N[C@H](C(=O)N[C@@H](CCC(=O)O)C(=O)N[C@H](C(=O)N[C@@H](CCC(=O)O)C(=O)N[C@@H](CCCCN)C(=O)N[C@@H](CCC(N)=O)C(=O)N[C@@H](CCC(=O)O)C(=O)N[C@@H](CCCCN)C(=O)N[C@@H](CCC(=O)O)C(=O)N[C@@H](CCCCN)C(=O)N[C@@H](CCC(N)=O)C(=O)N[C@H]1CCC(=O)NCCCC[C@@H](C(=O)N[C@@H](CC(N)=O)C(=O)N[C@@H](CCCNC(=N)N)C(=O)N[C@@H](CC(C)C)C(=O)N[C@@H](CC(C)C)C(=O)N[C@@H](CC(C)C)C(=O)N[C@@H](CC(=O)O)C(=O)N[C@H](C(=O)N[C@H](C(N)=O)[C@@H](C)CC)[C@@H](C)O)NC(=O)[C@@H](Cc2c[nH]cn2)NC(=O)[C@H](C)NC1=O)[C@@H](C)CC)[C@@H](C)CC [Example 8 B, (cyclo 29-32)[Ac-Pro^3, D-Pro^4, D-Leu^11, Nle^17, Glu^29, D-His^31, Lys^32]-sauvagine(3-40)] (Ac-P[dP]ISIDLS[dL]ELLRK[Nle]IEIEKQEKEKQEA[dH]KNRLLLDTI-NH2; lactam 27-30)
[4]
  relief of inflammation, in words: relieves inflammation

## oCRF: ovine corticotropin releasing factor, a 41-residue amidated peptide; the laboratory Standard (SQEPPISLDLTFHLLREVLEMTKADQLAQQAHSNRKLLDIA-NH2; UniProt P01142 148-188, looked up)
[1]
  stimulation of ACTH and β-endorphin secretion / activities, in words: stimulate the secretion of ACTH and β-endorphin; also recorded: stimulate ACTH and β-endorphin-like activities (β-END-Li) in vitro and in vivo
[2]
  lowering of blood pressure, in words: substantially lower blood pressure
[3]
  gastric acid production, in words: inhibit gastric acid production
